Structures can show the parent of a compound that is named as a salt.
Experiments:
[1] = in vivo, iv; cited from earlier work
[2] = tested on: acute bacterial skin and skin structure infections (ABSSSIs) suspected or confirmed to be due to Gram-positive pathogens; experiment: Phase III REVIVE-1 study, efficacy of fixed dose iclaprim versus vancomycin; type: in vivo, human; settings: ITT
Protocol: Subjects were evaluated daily up to ETP, then every 48 to 72 hours through the end of treatment. If the last dose of study drug fell on a day when an evaluation was not planned, an additional evaluation visit was performed on that day (i.e., all EOT evaluations were performed on the last day [+2 days] of drug dose).
The infusion time and duration of treatment for both groups was 2 hours and 5 days (minimum duration) to 14 days (maximum duration), respectively.
The primary endpoint for clinical response (defined as the reduction in lesion size ≥20% compared to baseline) was evaluated in all randomized subjects at ETP (48 to 72 hours post-first dose). […] In addition, clinical outcome was evaluated by the investigator at EOT and TOC (7 to 14 days post EOT). The assessments of clinical outcome was categorized as cure, failure, or indeterminate.
Iclaprim was administered at a dose of 80 mg in 500 mL normal saline, infused over 2 hours q12h (every 12 hours) for 5 to 14 days. For subjects with moderate hepatic impairment (Child-Pugh Class B), iclaprim was administered at a dose of 40 mg in 500 mL normal saline, infused over 2 hours q12h for 5 to 14 days.
Dosing interval was every q12 h, q24 h, q48 h, or dosed by daily level based on creatinine clearance.
The primary efficacy endpoint was the proportion of randomized subjects who achieved an early clinical response (defined as reduction in the lesion size ≥20% compared to baseline) at 48 to 72 hours (ETP) and was evaluated among all randomized subjects (ITT population).
The NI bound were 10%. […] Equivalently, if the lower bound of the two-sided 95% CI for P1-P2 was greater than −0.100 based on the Z test with unpooled variance estimate, NI was concluded.

[3] = Phase III REVIVE-1 study, safety (adverse events); settings: REVIVE-1 safety population
Protocol: All subjects who received any study drug were evaluated for safety on the basis of medical history and physical examinations, reports of clinical AEs, routine electrocardiography, and clinically significant findings from routine liver function tests, serum chemistry, hematology, coagulation, and urinalysis (UA) tests. All adverse events were recorded throughout the study period, up to and including the LFU phone call. While blinded to treatment assignment, the investigator categorized the severity of each AE and the potential for relationship to study drug. Serious AEs (SAEs) include those that were life threatening, led to prolongation of the existing hospitalization, a congenital anomaly/birth defect, or caused persistent or significant disability, incapacity, or death. Treatment-emergent AEs (TEAEs) were defined as those that start or worsen in severity during or after the first dose of study drug administration through end of study.
Safety evaluation included incidence of TEAEs, laboratory test results (including liver function tests), vital signs, ECG results, and physical examination findings. All summaries of safety data was based on the safety population (all treated subjects).
The AE summary tables included subject (patient) counts. Therefore, if a subject experienced more than one episode of a particular AE, the subject was counted only once for that event. If a subject had more than one AE that was coded to the same preferred term, the subject was counted only once for that preferred term. Similarly, if a subject had more than one AE within a SOC, the subject was counted only once in that SOC.

physchem [4] = settings: 20 °C, water
in vivo = settings: both; for NOAEL at 28 day: marmoset
Protocol: A repeated-dose, 4-week toxicity study was conducted in male and female rats, where single, daily IV bolus doses up to 60 mg/kg were given. […] A 28-day toxicity study was also conducted in male and female marmosets, where iclaprim mesylate was infused intravenously over a 20-minute interval.

[5] = pH of a 1% solution in water; type: physicochemical
[6] = Acute IV toxicity in rats; settings: rat, in vivo
[7] = Acute IV toxicity in the mouse; type: in vivo
physchem [8] = experiment: physchem
[9] = human, in vivo

CC[C@H]1OC(=O)[C@H](C)[C@@H](O[C@H]2C[C@@](C)(OC)[C@@H](O)[C@H](C)O2)[C@H](C)[C@@H](O[C@@H]2O[C@H](C)C[C@H](N(C)C)[C@H]2O)[C@](C)(OC)C[C@@H](C)C(=O)[C@H](C)[C@@H](O)[C@]1(C)O [clarithromycin]
QTc prolongation [1]: 3 to 11 ms

CN[C@H](CC(C)C)C(=O)N[C@H]1C(=O)N[C@@H](CC(N)=O)C(=O)N[C@H]2C(=O)N[C@H]3C(=O)N[C@H](C(=O)N[C@H](C(=O)O)c4cc(O)cc(O)c4-c4cc3ccc4O)[C@H](O)c3ccc(c(Cl)c3)Oc3cc2cc(c3O[C@@H]2O[C@H](CO)[C@@H](O)[C@H](O)[C@H]2O[C@H]2C[C@](C)(N)[C@H](O)[C@H](C)O2)Oc2ccc(cc2Cl)[C@H]1O [Vancomycin, vancomycin, reference compound]
Early Clinical Response (ECR), percent of subjects ([2]; ETP (48 to 72 hours)): 81.0% | Clinical cure, number of subjects ([2]; TOC (7 to 14 days after study drug discontinuation)): 261 | Clinical cure, percent of subjects ([2]; TOC): 87.0% | Deaths, number of subjects [3]: 1 | Deaths, percent of subjects [3]: 0.3% | Study drug related TEAEs, number of subjects [3]: 53 | Study drug related TEAEs, percent of subjects [3]: 17.8% | TEAE-related SAEs (Serious AEs), number of subjects [3]: 12 | TEAE-related SAEs (Serious AEs), percent of subjects [3]: 4.0% | TEAEs (Treatment Emergent Adverse Events), number of subjects [3]: 128 | TEAEs (Treatment Emergent Adverse Events), percent of subjects [3]: 43.1% | TEAEs leading to discontinuation of study drug, number of subjects [3]: 13 | TEAEs leading to discontinuation of study drug, percent of subjects [3]: 4.4%

COc1cc(Cc2cnc(N)nc2N)c2c(c1OC)OC(C1CC1)C=C2 (racemic) [iclaprim mesylate, 5-[(2RS)-2-cyclopropyl-7,8-dimethoxy-2Hchromen-5-ylmethyl] pyrimidine-2,4-diamine methanesulfonate]
solubility (physchem [4]): ~10000 µg/mL | NOAEL at 28 day (in vivo): 3.9 mg/kg/day | NOAEL at 28 day (in vivo; iv): 30 mg/kg/day | dosage with histopathological changes at the injection sites (in vivo; rat, iv, 4 week): ≥ 10 mg/kg/day | NOAEL at 4 week (in vivo; rat, iv, HED of NOAEL): 3.9 mg/kg/day | NOAEL at 4 week (in vivo; rat, iv, NOAEL): > 30 mg/kg/day | pH value of a 1% solution in water [5]: 4.2 | LD50 ([6]; female rats): > 200 mg/kg | LD50 ([6]; male rats): 150 to 200 mg/kg | HED of lowest lethal IV dose [7]: 6.1 mg/kg | lowest lethal IV dose [7]: 75 mg/kg | pKa (physchem [8]): 7.2

CC(=O)NC[C@H]1CN(c2ccc(N3CCOCC3)c(F)c2)C(=O)O1 [linezolid, reference compound]
adverse events related to QTc prolongation [9]: 2 cases

Reference: patent publication US10076522B2, “Systems and methods for treating bacterial infection” (priority 2016, dated 2018)
